Laboratory results taken from patent publication US20220323406A1, “METHODS AND COMPOSITIONS FOR DIFFERENTIATING STEM CELLS” (Massachusetts Institute of Technology, priority 2019, published 2022).
Where a name gives a salt, the structure may show the parent alone.

Experiments:
[1] = test system: ENR+CD organoids (ISC to Paneth cell differentiation); assay: Primary screen: basal (non-stimulated) lysozyme secretion LYZ.NS, 2.5-D 384-well ENR+CD organoid differentiation; assay type: cell-based, mouse; conditions: primary screen; for Z.LYZ.NS: standard z score
From the text: (§1) High-throughput screening.

ENR+CD organoids = assay: Primary screen: ATP (CellTiter-Glo 3D, CTG) cell number/viability, 2.5-D 384-well ENR+CD organoids; conditions: primary screen; for Z.CTG: standard z score;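 for all read-outs here: compounds given at plating and again on day 3 over a 6-day differentiation from ENR+CV stem-cell-enriched precursors, ATP measured on day 6, plate median as control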
[2] = test system: ENR+CD organoids (ISC to Paneth cell differentiation); assay: Primary screen: CCh-stimulated lysozyme secretion LYZ.S, 2.5-D 384-well ENR+CD organoid differentiation; assay type: cell-based, mouse; conditions: primary screen
From the text: as §1

[3] = dose 0.08 uM, FC relative to plate median
[4] = dose 0.40 uM, FC relative to plate median
[5] = dose 2.00 uM, FC relative to plate median
[6] = dose 10.00 uM, FC relative to plate median
[7] = dose 0.08 uM, FC vs plate median
[8] = dose 0.40 uM, FC vs plate median
[9] = dose 2.00 uM, FC vs plate median
[10] = dose 10.00 uM, FC vs plate median

SMILES	Dose.FC.LYZ.NS (log2 fold change) ([1]; dose 0.08 uM)	Z.LYZ.NS (standard z score) ([1]; dose 0.08 uM)	Dose.FC.LYZ.NS (log2 fold change) ([1]; dose 0.40 uM)	Z.LYZ.NS (standard z score) ([1]; dose 0.40 uM)	Dose.FC.LYZ.NS (log2 fold change) ([1]; dose 2.00 uM)	Z.LYZ.NS (standard z score) ([1]; dose 2.00 uM)	Dose.FC.LYZ.NS (log2 fold change) ([1]; dose 10.00 uM)	Z.LYZ.NS (standard z score) ([1]; dose 10.00 uM)	Dose.FC.CTG (log2 fold change) (ENR+CD organoids; dose 0.08 uM)	Dose.FC.CTG (log2 fold change) (ENR+CD organoids; dose 0.40 uM)	Dose.FC.CTG (log2 fold change) (ENR+CD organoids; dose 2.00 uM)	Dose.FC.CTG (log2 fold change) (ENR+CD organoids; dose 10.00 uM)	Dose.FC.LYZ.S (log2 fold change) ([2]; dose 0.08 uM)	Dose.FC.LYZ.S (log2 fold change) ([2]; dose 0.40 uM)	Dose.FC.LYZ.S (log2 fold change) ([2]; dose 2.00 uM)	Dose.FC.LYZ.S (log2 fold change) ([2]; dose 10.00 uM)	Z.LYZ.NS ([1]; dose 0.08 uM)	Z.LYZ.NS ([1]; dose 0.40 uM)	Z.LYZ.NS ([1]; dose 2.00 uM)	Z.LYZ.NS ([1]; dose 10.00 uM)	other results
CCc1c2c(nc3ccc(OC(=O)N4CCC(N5CCCCC5)CC4)cc13)-c1cc3c(c(=O)n1C2)COC(=O)[C@]3(O)CC [Irinotecan HCl Trihydrate]	−0.019	−0.162	−0.092	−0.805	−0.221	−1.925	−0.272	−2.368	−0.083	−0.205	−0.317	−0.588	−0.040	−0.158	−0.293	−0.367	–	–	–	–	–
CC(C)OC(=O)OCOP(=O)(CO[C@H](C)Cn1cnc2c(N)ncnc21)OCOC(=O)OC(C)C [Tenofovir Disoproxil Fumarate]	–	0.475	–	−0.442	–	−0.689	–	−1.614	–	–	–	–	–	–	–	–	–	–	–	–	Dose.FC.LYZ.NS ([1]; dose 0.08 uM): 0.055 log2 fold change; Dose.FC.LYZ.NS ([1]; dose 0.40 uM): −0.051 log2 fold change; Dose.FC.LYZ.NS ([1]; dose 2.00 uM): −0.079 log2 fold change; Dose.FC.LYZ.NS ([1]; dose 10.00 uM): −0.185 log2 fold change; Dose.FC.CTG (ENR+CD organoids; dose 0.08 uM): 0.072 log2 fold change; Dose.FC.CTG (ENR+CD organoids; dose 0.40 uM): −0.002 log2 fold change; Dose.FC.CTG (ENR+CD organoids; dose 2.00 uM): −0.158 log2 fold change; Dose.FC.CTG (ENR+CD organoids; dose 10.00 uM): −0.433 log2 fold change; Dose.FC.LYZ.S ([2]; dose 0.08 uM): 0.208 log2 fold change; Dose.FC.LYZ.S ([2]; dose 0.40 uM): 0.086 log2 fold change; Dose.FC.LYZ.S ([2]; dose 2.00 uM): −0.065 log2 fold change; Dose.FC.LYZ.S ([2]; dose 10.00 uM): −0.267 log2 fold change
O=C(/C=C/c1ccccc1)NC(NC(=S)Nc1ccc(Cl)cc1)C(Cl)(Cl)Cl (stereo not shown) [Sal003]	–	–	–	–	–	–	–	–	–	–	–	–	–	–	–	–	1.013	1.595	0.670	−2.142	Dose.FC.LYZ.NS [1, 3]: 0.116 log2 fold change; Dose.FC.LYZ.NS [1, 4]: 0.183 log2 fold change; Dose.FC.LYZ.NS [1, 5]: 0.077 log2 fold change; Dose.FC.LYZ.NS [1, 6]: −0.246 log2 fold change; Dose.FC.CTG (ENR+CD organoids; [3]): 0.191 log2 fold change; Z.CTG (ENR+CD organoids; dose 0.08 uM): 0.456; Dose.FC.CTG (ENR+CD organoids; [4]): 0.155 log2 fold change; Z.CTG (ENR+CD organoids; dose 0.40 uM): 0.370; Dose.FC.CTG (ENR+CD organoids; [5]): 0.196 log2 fold change; Z.CTG (ENR+CD organoids; dose 2.00 uM): 0.468; Dose.FC.CTG (ENR+CD organoids; [6]): −0.829 log2 fold change; Z.CTG (ENR+CD organoids; dose 10.00 uM): −1.981; Dose.FC.LYZ.S [2, 3]: 0.092 log2 fold change; Dose.FC.LYZ.S [2, 4]: 0.067 log2 fold change; Dose.FC.LYZ.S [2, 5]: 0.040 log2 fold change; Dose.FC.LYZ.S [2, 6]: −0.408 log2 fold change
C[C@H](NC(=O)[C@@H](O)c1cc(F)cc(F)c1)C(=O)N[C@@H]1C(=O)N(C)c2ccccc2-c2ccccc21 [LY411575]	0.040	0.347	−0.050	−0.434	−0.069	−0.598	−0.109	−0.949	0.035	−0.172	−0.172	−0.259	0.024	0.041	−0.091	−0.157	–	–	–	–	Z.CTG (standard z score) (ENR+CD organoids; dose 0.08 uM): 0.083; Z.CTG (standard z score) (ENR+CD organoids; dose 0.40 uM): −0.411; Z.CTG (standard z score) (ENR+CD organoids; dose 2.00 uM): −0.412; Z.CTG (standard z score) (ENR+CD organoids; dose 10.00 uM): −0.618
CCC(CC)(NC(=O)C(C)C)C(=O)N[C@@H](CCCN=C(N)N)C(=O)NC1(C(=O)NC(c2ccc(F)cc2)c2ccc(F)cc2)CCCC1 [MM-102]	–	–	–	–	–	–	–	–	–	–	–	–	–	–	–	–	−0.220	−0.090	0.230	−1.424	Dose.FC.LYZ.NS [1, 7]: −0.025 log2 fold change; Dose.FC.LYZ.NS [1, 8]: −0.010 log2 fold change; Dose.FC.LYZ.NS [1, 9]: 0.026 log2 fold change; Dose.FC.LYZ.NS [1, 10]: −0.164 log2 fold change; Z.CTG (ENR+CD organoids; dose 0.08 uM): −0.489; Z.CTG (ENR+CD organoids; dose 0.40 uM): −0.315; Z.CTG (ENR+CD organoids; dose 2.00 uM): −0.557; Z.CTG (ENR+CD organoids; dose 10.00 uM): −0.964; Dose.FC.CTG (ENR+CD organoids; [7]): −0.205 log2 fold change; Dose.FC.CTG (ENR+CD organoids; [8]): −0.132 log2 fold change; Dose.FC.CTG (ENR+CD organoids; [9]): −0.233 log2 fold change; Dose.FC.CTG (ENR+CD organoids; [10]): −0.403 log2 fold change; Dose.FC.LYZ.S [2, 7]: −0.027 log2 fold change; Dose.FC.LYZ.S [2, 8]: −0.001 log2 fold change; Dose.FC.LYZ.S [2, 9]: −0.035 log2 fold change; Dose.FC.LYZ.S [2, 10]: −0.194 log2 fold change
CCc1cc(Nc2nccc(-c3c(-c4ccc(OC)c(C(=O)Nc5c(F)cccc5F)c4)nc4ccccn34)n2)c(OC)cc1N1CCC(N2CCN(S(C)(=O)=O)CC2)CC1 [GSK1904529A]	0.102	0.890	0.112	0.977	−0.179	−1.557	−0.163	−1.419	0.202	−0.071	−0.570	−0.691	0.133	−0.047	−0.225	−0.276	–	–	–	–	Z.CTG (standard z score) (ENR+CD organoids; dose 0.08 uM): 0.484; Z.CTG (standard z score) (ENR+CD organoids; dose 0.40 uM): −0.170; Z.CTG (standard z score) (ENR+CD organoids; dose 2.00 uM): −1.361; Z.CTG (standard z score) (ENR+CD organoids; dose 10.00 uM): −1.649
